Converted amounts (≈) assume the structure as drawn.
Columns and labels:
Test in all cases: in vitro antibacterial evaluation, MIC by broth dilution
Assay type in all cases: cell-based
Enterococcus sp. = settings: broth dilution, 18 hours at 35° C.
Outline: (§1)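 MIC = lowest antibiotic concentration preventing visible growth; inoculum 5×10^5 CFU/mL; drug range 64-0.06 μg/mL; Muller-Hinton II […]; NCCLS M7-A2 guidance.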

Escherichia coli = system: Escherichia coli
Outline: as §1

Staphylococcus sp. = settings: broth dilution, 18 hours at 35° C.; for MIC Staphylococcus aureus (GC 1131): strain GC 1131
Outline: as §1

Streptococcus sp. = settings: broth dilution, 18 hours at 35° C.
Outline: as §1

SMILES: COc1cc(OC)cc(C2OCC3OC(OC4C(CO)OC(Oc5ccc(CC6NC(=O)C(C(C)c7ccccc7)NC(=O)CNC(=O)C(CO)NC(=O)C(C(O)C7CNC(=N)N7C7OC(CO)C(O)C(O)C7O)NC(=O)C(C(O)C7CNC(=N)N7)NC6=O)cc5)C(O)C4O)C(O)C(O)C3O2)c1 (stereo not drawn) [Example 150]
- MIC Enterococcus avium (GC 4558) (Enterococcus sp.; Enterococcus avium (GC 4558)): 8 µg/mL (≈ 5.54 µM)
- MIC Enterococcus faecalis (ATCC 29212) (Enterococcus sp.; Enterococcus faecalis (ATCC 29212)): 8 µg/mL (≈ 5.54 µM)
- MIC Enterococcus faecalis (GC 2242) (Enterococcus sp.; Enterococcus faecalis (GC 2242)): 4 µg/mL (≈ 2.77 µM)
- MIC Enterococcus faecalis (GC 2691) (Enterococcus sp.; Enterococcus faecalis (GC 2691)): 4 µg/mL (≈ 2.77 µM)
- MIC Enterococcus faecalis (GC 3059) (Enterococcus sp.; Enterococcus faecalis (GC 3059)): 8 µg/mL (≈ 5.54 µM)
- MIC Enterococcus faecalis (GC 4552) (Enterococcus sp.; Enterococcus faecalis (GC 4552)): 8 µg/mL (≈ 5.54 µM)
- MIC Enterococcus faecalis (GC 4553) (Enterococcus sp.; Enterococcus faecalis (GC 4553)): 8 µg/mL (≈ 5.54 µM)
- MIC Enterococcus faecalis (GC 4554) (Enterococcus sp.; Enterococcus faecalis (GC 4554)): 8 µg/mL (≈ 5.54 µM)
- MIC Enterococcus faecalis (GC 6189) (Enterococcus sp.; Enterococcus faecalis (GC 6189)): 8 µg/mL (≈ 5.54 µM)
- MIC Enterococcus faecium (GC 2243) (Enterococcus sp.; Enterococcus faecium (GC 2243)): 8 µg/mL (≈ 5.54 µM)
- MIC Enterococcus faecium (GC 4556) (Enterococcus sp.; Enterococcus faecium (GC 4556)): 8 µg/mL (≈ 5.54 µM)
- MIC Enterococcus faecium (GC 4557) (Enterococcus sp.; Enterococcus faecium (GC 4557)): 4 µg/mL (≈ 2.77 µM)
- MIC Enterococcus faecalis (ATCC 29212) (Enterococcus sp.; strain ATCC 29212): 8 µg/mL (≈ 5.54 µM)
- MIC Enterococcus faecalis (GC 2242) (Enterococcus sp.; strain GC 2242): 4 µg/mL (≈ 2.77 µM)
- MIC Enterococcus faecium (GC 2243) (Enterococcus sp.; strain GC 2243): 8 µg/mL (≈ 5.54 µM)
- MIC Enterococcus faecalis (GC 2691) (Enterococcus sp.; strain GC 2691): 4 µg/mL (≈ 2.77 µM)
- MIC Enterococcus faecalis (GC 3059) (Enterococcus sp.; strain GC 3059): 8 µg/mL (≈ 5.54 µM)
- MIC Enterococcus faecalis (GC 4552) (Enterococcus sp.; strain GC 4552): 8 µg/mL (≈ 5.54 µM)
- MIC Enterococcus faecalis (GC 4553) (Enterococcus sp.; strain GC 4553): 8 µg/mL (≈ 5.54 µM)
- MIC Enterococcus faecalis (GC 4554) (Enterococcus sp.; strain GC 4554): 8 µg/mL (≈ 5.54 µM)
- MIC Enterococcus faecium (GC 4556) (Enterococcus sp.; strain GC 4556): 8 µg/mL (≈ 5.54 µM)
- MIC Enterococcus faecium (GC 4557) (Enterococcus sp.; strain GC 4557): 4 µg/mL (≈ 2.77 µM)
- MIC Enterococcus avium (GC 4558) (Enterococcus sp.; strain GC 4558): 8 µg/mL (≈ 5.54 µM)
- MIC Enterococcus faecalis (GC 6189) (Enterococcus sp.; strain GC 6189): 8 µg/mL (≈ 5.54 µM)
- MIC Escherichia coli (ATCC 25922) (Escherichia coli; strain ATCC 25922, 18 hours at 35° C.): >64 µg/mL
- MIC Escherichia coli (GC 4559) (Escherichia coli; strain GC 4559, 18 hours at 35° C.): 32 µg/mL (≈ 22.2 µM)
- MIC Escherichia coli (GC 4560) (Escherichia coli; strain GC 4560, 18 hours at 35° C.): 1 µg/mL (≈ 0.693 µM)
- MIC Staphylococcus aureus (GC 1131) (Staphylococcus sp.; inoculum 5×10^5 CFU/mL): 4 µg/mL (≈ 2.77 µM)
- MIC Staphylococcus aureus (ATCC 29213) (Staphylococcus sp.; strain ATCC 29213): 2 µg/mL (≈ 1.39 µM)
- MIC Staphylococcus aureus (GC 1131) (Staphylococcus sp.): 4 µg/mL (≈ 2.77 µM)
- MIC Staphylococcus aureus (GC 3051) (Staphylococcus sp.; strain GC 3051): 2 µg/mL (≈ 1.39 µM)
- MIC Staphylococcus aureus (GC 3053) (Staphylococcus sp.; strain GC 3053): 8 µg/mL (≈ 5.54 µM)
- MIC Staphylococcus aureus (GC 4541) (Staphylococcus sp.; strain GC 4541): 2 µg/mL (≈ 1.39 µM)
- MIC Staphylococcus aureus (GC 4542) (Staphylococcus sp.; strain GC 4542): 2 µg/mL (≈ 1.39 µM)
- MIC Staphylococcus aureus-SMITH (GC 4543) (Staphylococcus sp.; strain GC 4543): 2 µg/mL (≈ 1.39 µM)
- MIC Staphylococcus aureus (GC 4544) (Staphylococcus sp.; strain GC 4544): 2 µg/mL (≈ 1.39 µM)
- MIC Staphylococcus aureus (GC 4545) (Staphylococcus sp.; strain GC 4545): 2 µg/mL (≈ 1.39 µM)
- MIC Staphylococcus haemolyticus (GC 4546) (Staphylococcus sp.; strain GC 4546): 1 µg/mL (≈ 0.693 µM)
- MIC Coagulase Negative Staphylococcus (GC 4547) (Staphylococcus sp.; strain GC 4547): 2 µg/mL (≈ 1.39 µM)
- MIC Coagulase Negative Staphylococcus (GC 4548) (Staphylococcus sp.; strain GC 4548): 1 µg/mL (≈ 0.693 µM)
- MIC Coagulase Negative Staphylococcus (GC 4549) (Staphylococcus sp.; strain GC 4549): 1 µg/mL (≈ 0.693 µM)
- MIC Coagulase Negative Staphylococcus (GC 4551) (Staphylococcus sp.; strain GC 4551): 2 µg/mL (≈ 1.39 µM)
- MIC Coagulase Negative Staphylococcus (GC 6257) (Staphylococcus sp.; strain GC 6257): 1 µg/mL (≈ 0.693 µM)
- MIC Staphylococcus aureus-SMITH (GC 4543) (Staphylococcus sp.; strain SMITH GC 4543): 2 µg/mL (≈ 1.39 µM)
- MIC Streptococcus agalactiae (GC 4564) (Streptococcus sp.; Streptococcus agalactiae (GC 4564)): 1 µg/mL (≈ 0.693 µM)
- MIC Streptococcus pneumoniae (ATCC 6301) (Streptococcus sp.; Streptococcus pneumoniae (ATCC 6301)): 0.25 µg/mL (≈ 0.173 µM)
- MIC Streptococcus pneumoniae (GC 1894) (Streptococcus sp.; Streptococcus pneumoniae (GC 1894)): 0.12 µg/mL (≈ 0.0831 µM)
- MIC Streptococcus pneumoniae (GC 4565) (Streptococcus sp.; Streptococcus pneumoniae (GC 4565)): 0.25 µg/mL (≈ 0.173 µM)
- MIC Streptococcus pyogenes (GC 4563) (Streptococcus sp.; Streptococcus pyogenes (GC 4563)): 0.5 µg/mL (≈ 0.346 µM)
- MIC Streptococcus pneumoniae (ATCC 6301) (Streptococcus sp.; strain ATCC 6301): 0.25 µg/mL (≈ 0.173 µM)
- MIC Streptococcus pneumoniae (GC 1894) (Streptococcus sp.; strain GC 1894): 0.12 µg/mL (≈ 0.0831 µM)
- MIC Streptococcus pyogenes (GC 4563) (Streptococcus sp.; strain GC 4563): 0.5 µg/mL (≈ 0.346 µM)
- MIC Streptococcus agalactiae (GC 4564) (Streptococcus sp.; strain GC 4564): 1 µg/mL (≈ 0.693 µM)
- MIC Streptococcus pneumoniae (GC 4565) (Streptococcus sp.; strain GC 4565): 0.25 µg/mL (≈ 0.173 µM)

Source: patent publication US6914045B2, “Glycopeptide antibiotics” (Wyeth Holdings Corporation, priority 2001, dated 2005)
